This assay has as its system Agaricus bisporus mycelium. In words: Stimulation of the growth of Agaricus bisporus mycelium on PDA culture medium. The note with it: for effect on the growth of the Agaricus bisporus mycelium: purified terpene at 40 μL/L, TripleX make (Amycel). The format is cell-based. The method, then:
• Mixing, in a sterile container, the essential oil or oils or the terpene or terpenes selected according to the invention, with the surfactant or surfactants, in equal portions: […], therefore preparing 200 μl in total.
• Preparing 2 times 1 litre of PDA in accordance with the instructions of the supplier, in separate containers. • Sterilising the two solutions at the same time, 15 minutes at 121° C. in an autoclave.
• Waiting until the two solutions drop in temperature, to reach approximately 40° C. • Homogenising and then pouring the composition of biostimulants, into one of the two containers. • Pouring the same volume of the surfactant or surfactants used, into the second container. • Placing under stirring, and then pouring the 2 litres of solutions into annotated petri dishes. • Placing the petri dishes in an incubator at 23° C.±1° C. and 80% humidity.
• Inoculating all the petri dishes with the mushroom strain selected. • Re-placing the petri dishes in an incubator at 23° C.±1° C. and 80% humidity.
• After 7 days, tracing the contour of the mycelium under the petri dishes, with a fine marker. • Once again tracing the contour of the mycelium after 14 and 21 days following the inoculation. • Measuring its growth to within 0.5 mm, on 4 axes separated by 90°, for each petri dish. • Calculating the mean growths measured, then determining the percentage inhibition or biostimulation compared with the reference, which contains only the surfactant or surfactants, without the essential oil or oils or the terpene and terpenes use.
The manipulations for each essential oil tested were reproduced 40 times, using the Agaricus bisporus mycelium of Heirloom make, supplied by the American company Amycel.
The tests were performed on three strains of Agaricus bisporus (of Heirloom and TripleX makes from the company Amycel and Tuscan from the company Sylvan) with the purified terpene ([…]. […]

In the case of `C=C1CCC2CC1C2(C)C` (stereo not drawn) [β-pinene], the “effect on the growth of the Agaricus bisporus mycelium” value is on record as “biostimulant effect”. Besides, the “effect on the growth of the mycelia of three strains of Agaricus bisporus” value (purified terpene, Heirloom and TripleX makes at 40 or 80 μL/L, Tuscan make at 80 or 100 μL/L, effect reinforced by increasing the concentration) is on record as “very marked effect of biostimulation”.
As for `CC1=CCC2CC1C2(C)C` (stereo not drawn) [α-pinene, reference compound], the “effect on the growth of the Agaricus bisporus mycelium” value is on record as “inhibiting effect”.
